Reference: PMC8047011, “Enantiomers of 2-methylglutamate and 2-methylglutamine selectively impact mouse brain metabolism and behavior” (Scientific Reports, 2021)

Tests used:
[1] = molecular target: T1, GABAA α3β2γ2 (Homo sapiens, UniProt P34903+P47870); experiment: FLIPR functional receptor assay, GABAA α3β2γ2; assay type: cell-based; conditions: agonist mode; top test concentration 1 mM
T1 construct: host or cells: HEK 293
Protocol: (§1) Receptor functional & binding assays
(§2) Functional assays of all GABAA, NMDA (GluN2A–GluN2D) and AMPA (GluA2) receptor subunits were performed by SB Drug Discovery as a part of their CNS discovery panel using FLIPR technology. Briefly, receptor-expressing HEK 293 cell lines were incubated in a red membrane potential dye in HEPES:HBSS pH 7.4 buffer and the fluorescence (λex: 488, λex: 510–570) was monitored over time as the test compounds and/or reference compounds were added to the solution. In agonist assay, only test compounds were added. In positive allosteric modulator assay, cells were preincubated with test compounds and then low concentration (approximately EC20) of an appropriate agonist was added. In antagonist assay, cells were preincubated with test compounds and then high concentration (approximately EC80) of an appropriate agonist was added. For GABAA assays, GABA was used as the agonist, picrotoxin was used as the reference antagonist and allopregnanolone was used as the reference positive allosteric modulator (PAM). For NMDA assays, a mixture of glutamate, glycine and CaCl2 was used as the agonist, MK801 was the reference antagonist and pregnenolone sulfate or GNE 9278 were used as reference PAMs. […] All compounds were tested at 7 concentration points in triplicate and EC50/IC50 was determined where applicable. […]

[2] = molecular target: T2, human glutaminase GLS1 (Homo sapiens, UniProt O94925); experiment: Catalysis of 2MeGln hydrolysis by GLS1 glutaminase; assay type: biochemical
T2 sequence (O94925 55-669): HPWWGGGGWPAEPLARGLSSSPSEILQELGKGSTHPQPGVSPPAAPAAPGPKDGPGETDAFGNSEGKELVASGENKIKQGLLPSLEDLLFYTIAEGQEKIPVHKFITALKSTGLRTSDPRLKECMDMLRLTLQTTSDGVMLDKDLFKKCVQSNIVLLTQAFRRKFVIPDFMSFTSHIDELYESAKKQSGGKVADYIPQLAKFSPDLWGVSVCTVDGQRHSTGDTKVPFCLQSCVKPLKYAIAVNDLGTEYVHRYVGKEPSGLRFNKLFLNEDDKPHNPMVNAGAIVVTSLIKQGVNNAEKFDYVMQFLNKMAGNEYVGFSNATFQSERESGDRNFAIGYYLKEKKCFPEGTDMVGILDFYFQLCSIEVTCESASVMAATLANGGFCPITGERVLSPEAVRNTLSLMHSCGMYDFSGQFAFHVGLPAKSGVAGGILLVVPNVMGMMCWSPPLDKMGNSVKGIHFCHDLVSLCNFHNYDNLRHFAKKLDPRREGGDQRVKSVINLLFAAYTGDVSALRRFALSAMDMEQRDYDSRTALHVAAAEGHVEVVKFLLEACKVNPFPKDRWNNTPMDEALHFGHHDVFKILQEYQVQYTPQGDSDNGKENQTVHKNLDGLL
Protocol: The procedure was adapted from an existing protocol. To a reaction mixture in a 1.5 mL microcentrifuge tube containing 10 mM rac-2MeGln or L-Gln-^13C2 in 100 mM phosphate pH 7.4 buffer made in 20% atom ^18O water, recombinant GLS1 (final concentration: 5 ng/mL) was added. The tubes were incubated in a preheated thermomixer at 37 °C and periodically shaken at 600 rpm (30 s on, 30 s off). 5 μL aliquots were collected in triplicate every 5 min and immediately diluted with 195 μL of cold 60% ACN containing 10 μM Glu-d5 and Gln-d5 as internal standards in a 96 well plate. After collecting all samples, the plate was shaken at 1000 rpm for 5 min at room temperature, and then stored at − 80 °C. Before analysis the plate was thawed and 10 μL aliquots of the extracted reaction mixtures were diluted with 190 μL of 90% acetonitrile.
The quantification of the newly formed 2MeGlu in the presence of the preexisting trace amounts was performed in the following way. Peak area ratio of Glu-^13C2 to Glu-^13C2^18O was calculated in all samples containing Glu-^13C2. The mean ratio value was then applied to calculate the hypothetical peak area of the newly formed 2MeGlu based on the directly measured 2MeGlu-^18O peak area. The ratio of the newly formed 2MeGlu peak area and the total 2MeGlu peak area was applied to calculate the concentration of the newly formed 2MeGlu from the total 2MeGlu concentration determined directly using the calibration curve.

[3] = molecular target: T3, GluN2A (Homo sapiens, UniProt Q12879); experiment: FLIPR functional receptor assay, GluN2A; assay type: cell-based
T3 construct: host or cells: HEK 293
T3 sequence (Q12879 23-1464, other chains not shown): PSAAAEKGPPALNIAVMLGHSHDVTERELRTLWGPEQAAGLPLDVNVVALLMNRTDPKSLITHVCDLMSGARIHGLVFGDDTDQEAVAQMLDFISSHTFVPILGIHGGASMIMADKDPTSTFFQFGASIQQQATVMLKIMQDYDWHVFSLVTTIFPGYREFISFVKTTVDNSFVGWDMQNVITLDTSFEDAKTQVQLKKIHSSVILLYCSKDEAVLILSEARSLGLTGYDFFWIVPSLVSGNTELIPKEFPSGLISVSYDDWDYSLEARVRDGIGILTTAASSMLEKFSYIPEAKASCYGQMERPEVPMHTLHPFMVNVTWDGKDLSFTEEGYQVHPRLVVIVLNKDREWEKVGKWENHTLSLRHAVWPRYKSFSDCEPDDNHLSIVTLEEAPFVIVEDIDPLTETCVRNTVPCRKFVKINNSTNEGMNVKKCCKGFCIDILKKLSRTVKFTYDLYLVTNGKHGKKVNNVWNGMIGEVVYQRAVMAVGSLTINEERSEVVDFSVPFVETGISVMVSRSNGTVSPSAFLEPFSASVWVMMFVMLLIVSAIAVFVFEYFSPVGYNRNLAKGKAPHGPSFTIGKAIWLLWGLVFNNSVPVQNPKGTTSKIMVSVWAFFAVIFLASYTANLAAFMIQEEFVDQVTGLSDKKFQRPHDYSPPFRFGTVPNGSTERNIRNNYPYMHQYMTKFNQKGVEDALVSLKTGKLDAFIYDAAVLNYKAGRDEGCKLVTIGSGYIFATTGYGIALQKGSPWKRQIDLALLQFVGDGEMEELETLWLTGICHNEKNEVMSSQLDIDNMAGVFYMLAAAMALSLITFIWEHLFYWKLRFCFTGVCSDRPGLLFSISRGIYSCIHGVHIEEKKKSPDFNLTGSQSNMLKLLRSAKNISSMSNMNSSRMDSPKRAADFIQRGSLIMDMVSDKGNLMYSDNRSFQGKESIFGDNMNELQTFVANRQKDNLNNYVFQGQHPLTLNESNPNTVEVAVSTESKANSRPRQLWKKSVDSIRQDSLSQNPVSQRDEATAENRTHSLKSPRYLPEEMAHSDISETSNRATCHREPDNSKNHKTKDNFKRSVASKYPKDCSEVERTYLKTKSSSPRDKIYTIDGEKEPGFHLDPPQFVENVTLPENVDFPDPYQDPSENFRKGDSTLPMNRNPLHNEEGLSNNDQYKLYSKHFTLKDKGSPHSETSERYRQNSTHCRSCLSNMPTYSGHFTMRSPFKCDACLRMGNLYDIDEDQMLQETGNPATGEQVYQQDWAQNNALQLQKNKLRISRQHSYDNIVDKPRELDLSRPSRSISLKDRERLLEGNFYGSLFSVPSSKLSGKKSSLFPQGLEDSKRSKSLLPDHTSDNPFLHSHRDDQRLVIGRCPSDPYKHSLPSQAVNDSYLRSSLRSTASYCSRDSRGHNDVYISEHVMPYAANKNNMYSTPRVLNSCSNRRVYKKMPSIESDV
Protocol: as §1, §2

T1 sequence (P34903 29-492): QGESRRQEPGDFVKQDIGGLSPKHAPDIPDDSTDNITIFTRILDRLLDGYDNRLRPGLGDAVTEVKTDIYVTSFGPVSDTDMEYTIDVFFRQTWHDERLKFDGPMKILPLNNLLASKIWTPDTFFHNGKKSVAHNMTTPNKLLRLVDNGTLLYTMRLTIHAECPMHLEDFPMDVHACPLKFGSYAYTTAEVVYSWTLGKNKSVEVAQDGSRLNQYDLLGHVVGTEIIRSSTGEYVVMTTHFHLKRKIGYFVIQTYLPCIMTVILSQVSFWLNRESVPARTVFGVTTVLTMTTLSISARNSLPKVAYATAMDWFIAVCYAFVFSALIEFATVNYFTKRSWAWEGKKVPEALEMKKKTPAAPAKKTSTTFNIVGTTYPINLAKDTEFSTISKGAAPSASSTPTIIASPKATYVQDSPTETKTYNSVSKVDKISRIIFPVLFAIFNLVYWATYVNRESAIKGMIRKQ
T1 sequence (P47870 25-512 limits assumed): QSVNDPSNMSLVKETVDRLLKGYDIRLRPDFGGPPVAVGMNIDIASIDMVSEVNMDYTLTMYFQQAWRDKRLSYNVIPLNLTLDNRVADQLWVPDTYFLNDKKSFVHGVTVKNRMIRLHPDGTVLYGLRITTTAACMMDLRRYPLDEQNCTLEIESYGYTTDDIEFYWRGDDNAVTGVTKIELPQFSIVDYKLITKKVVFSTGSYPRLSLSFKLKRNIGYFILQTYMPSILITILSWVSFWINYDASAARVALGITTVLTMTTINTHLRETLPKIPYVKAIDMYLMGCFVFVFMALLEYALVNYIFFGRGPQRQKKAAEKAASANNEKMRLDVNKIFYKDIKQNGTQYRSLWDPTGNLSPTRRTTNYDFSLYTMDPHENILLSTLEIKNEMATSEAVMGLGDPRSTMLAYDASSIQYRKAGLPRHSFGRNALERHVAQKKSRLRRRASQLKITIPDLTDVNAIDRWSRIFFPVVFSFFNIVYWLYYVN
T1 sequence (P18507 40-475 partner): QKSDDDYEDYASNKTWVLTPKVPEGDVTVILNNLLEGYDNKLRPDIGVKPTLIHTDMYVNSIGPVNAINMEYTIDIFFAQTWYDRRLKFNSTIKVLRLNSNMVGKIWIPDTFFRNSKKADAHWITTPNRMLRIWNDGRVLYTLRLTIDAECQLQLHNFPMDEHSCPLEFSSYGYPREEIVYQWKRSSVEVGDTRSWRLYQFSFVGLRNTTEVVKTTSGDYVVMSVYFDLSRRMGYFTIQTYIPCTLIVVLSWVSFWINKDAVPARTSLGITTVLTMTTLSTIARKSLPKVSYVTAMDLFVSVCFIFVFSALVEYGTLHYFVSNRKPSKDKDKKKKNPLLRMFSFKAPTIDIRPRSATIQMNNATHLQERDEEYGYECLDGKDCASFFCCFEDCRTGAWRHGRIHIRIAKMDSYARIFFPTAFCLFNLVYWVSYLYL

| Compound | EC50 [1] [µM] | Substrate for GLS1 [2] | Apparent GLS1 reaction rate, fold lower compared to Gln ([2]; 10 mM substrate) | Apparent reaction rate of GLS1 hydrolysis ([2]; 10 mM substrate, 5 ng/mL enzyme, phosphate pH 7.4) [µM/min] | Activity against GluN2A (in words) [3] | IC50 ([3]; antagonist mode, top test concentration 100 μM) [µM] |
| --- | --- | --- | --- | --- | --- | --- |
| C[C@](N)(CCC(=O)O)C(=O)O [(S)-2MeGlu, (S)-2-methylglutamic acid] | 961 |  |  |  |  |  |
| CC(N)(CCC(N)=O)C(=O)O (racemic) [rac-2MeGln, rac-2-methylglutamine] |  | at least one enantiomer of 2MeGln is a substrate for human GLS1, albeit relatively slow | approximately 35 fold | 1.9 |  |  |
| C[C@@](N)(CCC(=O)O)C(=O)O [(R)-2MeGlu, (R)-2-methylglutamic acid] | > 1000 |  |  |  | weak antagonist behavior | 69 |
